Measured values as given in PubChem BioAssay (NCI).
“And” between values parts separate entries of the source, which are not always exact repeats. Equal entries are not always repeated.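 Step 1: Grow cells in 96-well plates. Step 2: Expose to compound for 48 hours at 5 concentrations. Step 3: Interpolate endpoints linearly; if unreached, use highest concentration. At the GI50, growth is halved. Definition used: TGI = concentration required for complete inhibition of growth.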

How the values were obtained:
Assay in all cases: growth of human tumour cells (NCI), 48 h
CAKI-1 renal = test system: CAKI-1 renal
HCC-2998 colon = test system: HCC-2998 colon
786-0 renal = test system: 786-0 renal
SK-OV-3 ovarian = test system: SK-OV-3 ovarian
BT-549 breast = test system: BT-549 breast
SK-MEL-5 melanoma = test system: SK-MEL-5 melanoma
HS 578T breast = test system: HS 578T breast
SK-MEL-2 melanoma = test system: SK-MEL-2 melanoma
SK-MEL-28 melanoma = test system: SK-MEL-28 melanoma
SN12C renal = test system: SN12C renal

Structure (SMILES)	TGI (CAKI-1 renal) [µM]	TGI (HCC-2998 colon)	TGI (786-0 renal) [µM]	TGI (SK-OV-3 ovarian)	TGI (BT-549 breast) [µM]	TGI (SK-MEL-5 melanoma)	TGI (HS 578T breast) [µM]	TGI (SK-MEL-2 melanoma)	TGI (SK-MEL-28 melanoma)	TGI (SN12C renal)	GI50 (CAKI-1 renal) [µM]	GI50 (HCC-2998 colon) [µM]	GI50 (SK-MEL-5 melanoma) [µM]	GI50 (SK-MEL-2 melanoma) [µM]	GI50 (SK-MEL-28 melanoma) [µM]	GI50 (SN12C renal) [µM]
O=C(c1ccc(O)c([N+](=O)[O-])c1)c1ccc(O)c([N+](=O)[O-])c1	> 100	> 100 µM	> 100	> 100 µM	> 100	> 100 µM	> 100	> 100 µM	> 100 µM	> 100 µM	–	–	–	–	–	–
CC(=O)N(C(C)=O)n1c(Cc2ccc(C)cc2)nn(C(C)=O)c1=O	> 100	> 100 µM	> 100	> 100 µM	> 100	> 100 µM	> 100	> 100 µM	> 100 µM	> 100 µM	–	–	–	–	–	–
CCOC(=O)C(NC(=O)CC)(Nc1ccc(F)c(Cl)c1)C(F)(F)F (stereo not given)	> 100	> 100 µM	> 100	> 100 µM	> 100	> 100 µM	> 100	> 100 µM	> 100 µM	> 100 µM	–	–	–	–	–	–
O=C1CS[C@@](CC(c2ccc(Cl)cc2)c2ccc(Cl)cc2)(c2ccc(Cl)cc2)N1	> 100	> 100 µM	71.2	> 100 µM	> 100	34.6 µM	> 100	87.6 µM	> 100 µM	5.42 µM	–	–	–	–	–	–
CCOc1ccc(/C=C2\NC(=S)N(/C=C3\C(=O)Oc4ccccc4C3=O)C2=O)cc1	53.5	> 100 µM	39.5	38.8 µM	54.9	41.5 µM	96.2	48 µM	83.9 µM	45.3 µM	–	–	–	–	–	–
COc1ccc(N=C2C(=Nc3ccc(OC)cc3)N(c3ccc(N(C)C)cc3)C(=S)N2c2ccc(OC)cc2)cc1	> 100	> 100 µM	> 100	> 100 µM	> 100	> 100 µM	> 100	> 100 µM	> 100 µM	> 100 µM	–	–	–	–	–	–
CCCC(=O)NC(Nc1ccc(F)cc1)(C(F)(F)F)C(F)(F)F	> 100	> 100 µM	> 100	> 100 µM	> 100	> 100 µM	> 100	67 µM	> 100 µM	> 100 µM	–	–	–	–	–	–
CCCN(CCC)C1CCc2c(ccc3cc[nH]c23)C1 (stereo not given)	> 100	59.9 µM	> 100	> 100 µM	> 100	41.4 µM	> 100	> 100 µM	89.4 µM	> 100 µM	–	–	–	–	–	–
COc1c2ccsc2c(OC)c2ccsc12	40	> 100 µM	> 100	> 100 µM	> 100	> 100 µM	> 100	> 100 µM	> 100 µM	> 100 µM	–	–	–	–	–	–
O=[N+]([O-])c1cccc(Cl)c1Oc1ccc(S(=O)(=O)/N=C(\NO)Nc2ccc(Cl)cc2)cc1	25.8	24 µM	25.7	31.8 µM	29.9	24.7 µM	27.6	29.6 µM	34.7 µM	25.7 µM	–	–	–	–	–	–
Cc1cc(N(CCC#N)CCC#N)ccc1/C=C1\SC(=S)NC1=O	> 100	> 100 µM	> 100	> 100 µM	> 100	> 100 µM	85	> 100 µM	> 100 µM	> 100 µM	–	–	–	–	–	–
CN(C)CC1CCC/C(=C\c2ccc(OC(=O)/C=C/c3ccc(Cl)c(Cl)c3)cc2)C1=O (stereo not given)	5.81	10.1 µM	4.19	> 100 µM	8.01	12.2 µM	> 85.3	44.8 µM	28.1 µM	5.64 µM	–	–	–	–	–	–
COc1ccc([C@]23CCN4COC[C@@H]([C@H]42)C2(CC3)OCC(C)(C)CO2)cc1OC	> 100	> 100 µM	> 100	> 100 µM	> 100	> 100 µM	> 100	> 100 µM	> 100 µM	> 100 µM	–	–	–	–	–	–
COC(=O)c1cccc(OC)c1C#Cc1c(OC)cccc1OC	> 100	> 100 µM	> 100	> 100 µM	> 100	> 100 µM	> 100	> 100 µM	> 100 µM	> 100 µM	–	–	–	–	–	–
CCN(CC)CCOC(=O)Cc1cccc2c(=O)cc(-c3ccccc3)oc12	–	62.5 µM and > 102 µM	62.5	62.5 µM and > 108 µM	61.7	62.5 µM and > 186 µM	62.5	62.5 µM and > 212 µM	62.5 µM and > 237 µM	62.5 µM and > 320 µM	252	34.1	81.5	52.9	115	92.8
COC(=O)NC(Cc1ccccc1)NC(C)=O (stereo not given)	> 100	> 100 µM	> 100	> 100 µM	> 100	> 100 µM	> 100	> 100 µM	> 100 µM	> 100 µM	–	–	–	–	–	–
N#CC[N+]1(Cc2ccccn2)CCCC1	> 100	> 100 µM	> 100	> 100 µM	> 100	> 100 µM	> 100	> 100 µM	> 100 µM	> 100 µM	–	–	–	–	–	–
CCCCCCCCCCCCCCCCCC(=O)Nc1ccn(C2CCC(COP(=O)(O)O)O2)c(=O)n1 (stereo not given)	> 100	> 100 µM	> 100	> 100 µM	> 100	> 100 µM	> 100	> 100 µM	> 100 µM	> 100 µM	–	–	–	–	–	–
N=c1oc2ccccc2cc1-c1nc2ccccc2c(=O)[nH]1	> 100	> 100 µM	> 100	> 100 µM	> 100	> 100 µM	84.3	> 100 µM	> 100 µM	> 100 µM	–	–	–	–	–	–
Cc1cc(N2CCCC2)c([N+](=O)[O-])cc1[N+](=O)[O-]	> 100	> 100 µM	> 100	> 100 µM	> 100	> 100 µM	> 100	> 100 µM	> 100 µM	> 100 µM	–	–	–	–	–	–
COC(=O)C1=CON2C3CC4CC(C3)CC(C4)C12C (stereo not given)	> 100	> 100 µM	> 100	> 100 µM	> 100	> 100 µM	> 100	> 100 µM	> 100 µM	> 100 µM	–	–	–	–	–	–
O=[N+]([O-])c1ccc(N2N=C(c3ccc4ccccc4c3O)CC2c2ccc(Cl)cc2)c([N+](=O)[O-])c1 (stereo not given)	> 100	> 100 µM	> 100	> 100 µM	> 100	63.3 µM	> 100	> 100 µM	> 100 µM	> 100 µM	–	–	–	–	–	–
